Reference: ChEMBL document CHEMBL3046672, “Synthesis and bioevaluation of Schiff and Mannich bases of isatin derivatives with 4-amino-5-benzyl-2,4-dihydro-3H-1,2,4-triazole-3-thione” (2012)

How the values were obtained:
Assay type in all cases: functional
Conditions in all cases: read-out: DIZ
Pseudomonas aeruginosa [1] = assay: Antibacterial activity against Pseudomonas aeruginosa at 50 ug/ml
Pseudomonas aeruginosa [2] = assay: Antibacterial activity against Pseudomonas aeruginosa at 100 ug/ml
Pseudomonas aeruginosa [3] = assay: Antibacterial activity against Pseudomonas aeruginosa at 200 ug/ml
Escherichia coli [4] = assay: Antibacterial activity against Escherichia coli at 50 ug/ml
Escherichia coli [5] = assay: Antibacterial activity against Escherichia coli at 100 ug/ml
Escherichia coli [6] = assay: Antibacterial activity against Escherichia coli at 200 ug/ml
Staphylococcus aureus [7] = assay: Antibacterial activity against Staphylococcus aureus at 200 ug/ml
Staphylococcus aureus [8] = assay: Antibacterial activity against Staphylococcus aureus at 100 ug/ml
Aspergillus niger [9] = assay: Antifungal activity against Aspergillus niger at 200 ug/ml
Staphylococcus aureus [10] = assay: Antibacterial activity against Staphylococcus aureus at 50 ug/ml
Bacillus subtilis [11] = assay: Antibacterial activity against Bacillus subtilis at 200 ug/ml
Bacillus subtilis [12] = assay: Antibacterial activity against Bacillus subtilis at 100 ug/ml
Bacillus subtilis [13] = assay: Antibacterial activity against Bacillus subtilis at 50 ug/ml
Candida albicans [14] = assay: Antifungal activity against Candida albicans at 200 ug/ml
Candida albicans [15] = assay: Antifungal activity against Candida albicans at 100 ug/ml
Candida albicans [16] = assay: Antifungal activity against Candida albicans at 50 ug/ml
Aspergillus niger [17] = assay: Antifungal activity against Aspergillus niger at 100 ug/ml

SMILES | zone of inhibition at 50 µg/mL (Pseudomonas aeruginosa [1]) | zone of inhibition at 100 µg/mL (Pseudomonas aeruginosa [2]) | zone of inhibition at 200 µg/mL (Pseudomonas aeruginosa [3]) | zone of inhibition at 50 µg/mL (Escherichia coli [4]) | zone of inhibition at 100 µg/mL (Escherichia coli [5]) | zone of inhibition at 200 µg/mL (Escherichia coli [6]) | zone of inhibition at 200 µg/mL (Staphylococcus aureus [7]) | zone of inhibition at 100 µg/mL (Staphylococcus aureus [8]) | zone of inhibition at 200 µg/mL (Aspergillus niger [9]) | zone of inhibition at 50 µg/mL (Staphylococcus aureus [10]) | zone of inhibition at 200 µg/mL (Bacillus subtilis [11]) | zone of inhibition at 100 µg/mL (Bacillus subtilis [12]) | zone of inhibition at 50 µg/mL (Bacillus subtilis [13]) | zone of inhibition at 200 µg/mL (Candida albicans [14]) | zone of inhibition at 100 µg/mL (Candida albicans [15]) | zone of inhibition at 50 µg/mL (Candida albicans [16]) | zone of inhibition at 100 µg/mL (Aspergillus niger [17])
O=C1/C(=N\n2c(Cc3ccccc3)n[nH]c2=S)c2cc(Cl)ccc2N1CN1CCCCC1 | 10 mm | 15 mm | 21 mm | 10 mm | 16 mm | 25 mm | 20 mm | 12 mm | 15 mm | 9 mm | 22 mm | 13 mm | 9 mm | 16 mm | 11 mm | 9 mm | 9 mm
O=C(O)c1cn(C2CC2)c2cc(N3CCNCC3)c(F)cc2c1=O [CIPROFLOXACIN] | – | – | 28 mm | – | – | 30 mm | 26 mm | – | – | – | 25 mm | – | – | – | – | – | –
O=C1/C(=N\n2c(Cc3ccccc3)n[nH]c2=S)c2ccccc2N1CN1CCCCC1 | 10 mm | 16 mm | 20 mm | 11 mm | 18 mm | 23 mm | 20 mm | 14 mm | 13 mm | 9 mm | 20 mm | 12 mm | 9 mm | 16 mm | 10 mm | – | 9 mm
O=C1/C(=N\n2c(Cc3ccccc3)n[nH]c2=S)c2cc(Br)ccc2N1CN1CCCCC1 | 10 mm | 15 mm | 22 mm | 10 mm | 16 mm | 25 mm | 21 mm | 14 mm | 15 mm | 9 mm | 20 mm | 15 mm | 10 mm | 16 mm | 10 mm | – | 9 mm
O=C1/C(=N\n2c(Cc3ccccc3)n[nH]c2=S)c2cc(Cl)ccc2N1CN1CCOCC1 | 9 mm | 15 mm | 25 mm | 11 mm | 16 mm | 25 mm | 20 mm | 14 mm | 17 mm | 9 mm | 22 mm | 13 mm | 9 mm | 17 mm | 10 mm | – | 9 mm
CCN(CC)CN1C(=O)/C(=N\n2c(Cc3ccccc3)n[nH]c2=S)c2cc(Cl)ccc21 | 9 mm | 16 mm | 22 mm | 11 mm | 17 mm | 27 mm | 21 mm | 12 mm | 12 mm | 9 mm | 20 mm | 14 mm | 9 mm | 15 mm | 9 mm | – | 9 mm
O=C1Nc2ccc(Br)cc2/C1=N/n1c(Cc2ccccc2)n[nH]c1=S | 10 mm | 15 mm | 25 mm | 11 mm | 17 mm | 27 mm | 20 mm | 12 mm | 14 mm | 9 mm | 20 mm | 15 mm | 9 mm | 17 mm | 11 mm | – | 10 mm
OC(Cn1cncn1)(Cn1cncn1)c1ccc(F)cc1F [FLUCONAZOLE] | – | – | – | – | – | – | – | – | 18 mm | – | – | – | – | 20 mm | – | – | –
O=C1/C(=N\n2c(Cc3ccccc3)n[nH]c2=S)c2cc(Br)ccc2N1CN1CCOCC1 | 10 mm | 15 mm | 24 mm | 9 mm | 16 mm | 24 mm | 20 mm | 13 mm | 12 mm | 9 mm | 21 mm | 12 mm | 9 mm | 15 mm | 10 mm | – | 9 mm
O=C1Nc2ccc(Cl)cc2/C1=N/n1c(Cc2ccccc2)n[nH]c1=S | 9 mm | 13 mm | 25 mm | 11 mm | 18 mm | 27 mm | 23 mm | 11 mm | 12 mm | – | 20 mm | 14 mm | 9 mm | 16 mm | 9 mm | – | 9 mm
CCN(CC)CN1C(=O)/C(=N\n2c(Cc3ccccc3)n[nH]c2=S)c2ccccc21 | 9 mm | 13 mm | 20 mm | 9 mm | 15 mm | 22 mm | 23 mm | 16 mm | 13 mm | 11 mm | 20 mm | 13 mm | 9 mm | 17 mm | 10 mm | – | 9 mm
O=C1Nc2ccccc2/C1=N/n1c(Cc2ccccc2)n[nH]c1=S | 13 mm | 16 mm | 24 mm | 12 mm | 19 mm | 23 mm | 22 mm | 16 mm | 14 mm | 10 mm | 20 mm | 15 mm | 9 mm | 15 mm | 9 mm | – | 9 mm
CCN(CC)CN1C(=O)/C(=N\n2c(Cc3ccccc3)n[nH]c2=S)c2cc(Br)ccc21 | 9 mm | 14 mm | 23 mm | 10 mm | 16 mm | 26 mm | 20 mm | 14 mm | 13 mm | 9 mm | 20 mm | 13 mm | 9 mm | 16 mm | 10 mm | – | 9 mm
O=C1/C(=N\n2c(Cc3ccccc3)n[nH]c2=S)c2ccccc2N1CN1CCOCC1 | 9 mm | 12 mm | 22 mm | 9 mm | 15 mm | 23 mm | 19 mm | 15 mm | 12 mm | 10 mm | 20 mm | 13 mm | 9 mm | 15 mm | 10 mm | – | 9 mm
